Results as given in patent US8680012B2, “4-phenyl-pyrane-3,5-diones,4-phenyl-thiopyrane-3,6-diones and cyclohexanetriones as novel herbicides” (Syngenta Crop Protection LLC, priority 2006, dated 2014).

Experiments:
Type in all cases: in vivo
[1] = test system: Alopecurus myosuroides (ALOMY); experiment: Example B pre-emergence herbicidal activity, glasshouse pot test; details: 312 h, evaluated after 13 days, read-out: Pre-emergence activity ALOMY (100=total damage to plant; 0=no damage to plant); for pest or weed control at 250 g/ha: rate 250 g/ha; for pest or weed control at 1000 g/ha: rate 1000 g/ha
Method in brief: (§1)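 One day (pre) or eight days (post) after sowing, pots received a spray of test compound formulated in acetone/water 50:50 with 0.5% Tween 20; plants were then kept under controlled glasshouse conditions with watering twice daily and assessed for damage (0–100) at 13 days.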

[2] = test system: Amaranthus retroflexus (AMARE); experiment: as above; details: 312 h, evaluated after 13 days, read-out: Pre-emergence activity AMARE (100=total damage to plant; 0=no damage to plant); for pest or weed control at 250 g/ha: rate 250 g/ha; for pest or weed control at 1000 g/ha: rate 1000 g/ha
Method in brief: as §1

Avena fatua (AVEFA) [3] = experiment: as above; details: 312 h, evaluated after 13 days, read-out: Pre-emergence activity AVEFA (100=total damage to plant; 0=no damage to plant); for pest or weed control at 250 g/ha: rate 250 g/ha; for pest or weed control at 1000 g/ha: rate 1000 g/ha
Method in brief: as §1

[4] = test system: Echinochloa crus-galli (ECHCG); experiment: as above; details: 312 h, evaluated after 13 days, read-out: Pre-emergence activity ECHCG (100=total damage to plant; 0=no damage to plant); for pest or weed control at 250 g/ha: rate 250 g/ha; for pest or weed control at 1000 g/ha: rate 1000 g/ha
Method in brief: as §1

Setaria faberi (SETFA) [5] = experiment: as above; details: 312 h, evaluated after 13 days, read-out: Pre-emergence activity SETFA (100=total damage to plant; 0=no damage to plant); for pest or weed control at 250 g/ha: rate 250 g/ha; for pest or weed control at 1000 g/ha: rate 1000 g/ha
Method in brief: as §1

Solanum nigrum (SOLNI) [6] = experiment: as above; details: 312 h, evaluated after 13 days, read-out: Pre-emergence activity SOLNI (100=total damage to plant; 0=no damage to plant); for pest or weed control at 250 g/ha: rate 250 g/ha; for pest or weed control at 1000 g/ha: rate 1000 g/ha
Method in brief: as §1

[7] = test system: Alopecurus myosuroides (ALOMY); experiment: Example B post-emergence herbicidal activity, glasshouse pot test; details: 312 h, evaluated after 13 days, read-out: Post-emergence activity ALOMY (100=total damage to plant; 0=no damage to plant); for pest or weed control at 250 g/ha: rate 250 g/ha; for pest or weed control at 1000 g/ha: rate 1000 g/ha
Method in brief: as §1

[8] = test system: Amaranthus retroflexus (AMARE); experiment: as above; details: 312 h, evaluated after 13 days, read-out: Post-emergence activity AMARE (100=total damage to plant; 0=no damage to plant); for pest or weed control at 250 g/ha: rate 250 g/ha; for pest or weed control at 1000 g/ha: rate 1000 g/ha
Method in brief: as §1

Avena fatua (AVEFA) [9] = experiment: as above; details: 312 h, evaluated after 13 days, read-out: Post-emergence activity AVEFA (100=total damage to plant; 0=no damage to plant); for pest or weed control at 250 g/ha: rate 250 g/ha; for pest or weed control at 1000 g/ha: rate 1000 g/ha
Method in brief: as §1

[10] = test system: Echinochloa crus-galli (ECHCG); experiment: as above; details: 312 h, evaluated after 13 days, read-out: Post-emergence activity ECHCG (100=total damage to plant; 0=no damage to plant); for pest or weed control at 250 g/ha: rate 250 g/ha; for pest or weed control at 1000 g/ha: rate 1000 g/ha
Method in brief: as §1

Setaria faberi (SETFA) [11] = experiment: as above; details: 312 h, evaluated after 13 days, read-out: Post-emergence activity SETFA (100=total damage to plant; 0=no damage to plant); for pest or weed control at 250 g/ha: rate 250 g/ha; for pest or weed control at 1000 g/ha: rate 1000 g/ha
Method in brief: as §1

Solanum nigrum (SOLNI) [12] = experiment: as above; details: 312 h, evaluated after 13 days, read-out: Post-emergence activity SOLNI (100=total damage to plant; 0=no damage to plant); for pest or weed control at 250 g/ha: rate 250 g/ha; for pest or weed control at 1000 g/ha: rate 1000 g/ha
Method in brief: as §1

SMILES	pest or weed control at 1000 g/ha [1]	pest or weed control at 1000 g/ha [2]	pest or weed control at 1000 g/ha (Avena fatua (AVEFA) [3])	pest or weed control at 1000 g/ha [4]	pest or weed control at 1000 g/ha (Setaria faberi (SETFA) [5])	pest or weed control at 1000 g/ha (Solanum nigrum (SOLNI) [6])	pest or weed control at 1000 g/ha [7]	pest or weed control at 1000 g/ha [8]	pest or weed control at 1000 g/ha (Avena fatua (AVEFA) [9])	pest or weed control at 1000 g/ha [10]	pest or weed control at 1000 g/ha (Setaria faberi (SETFA) [11])	pest or weed control at 1000 g/ha (Solanum nigrum (SOLNI) [12])	also measured
CCc1ccc(-c2cnc(Cl)cc2C)cc1C1=C(O)C(C)(C)C(=O)C(C)(C)C1=O [Compound B-28]													pest or weed control at 250 g/ha [1]: 0%; pest or weed control at 250 g/ha [2]: 0%; pest or weed control at 250 g/ha (Avena fatua (AVEFA) [3]): 0%; pest or weed control at 250 g/ha [4]: 0%; pest or weed control at 250 g/ha (Setaria faberi (SETFA) [5]): 0%; pest or weed control at 250 g/ha (Solanum nigrum (SOLNI) [6]): 0%; pest or weed control at 250 g/ha [7]: 0%; pest or weed control at 250 g/ha [8]: 0%; pest or weed control at 250 g/ha (Avena fatua (AVEFA) [9]): 0%; pest or weed control at 250 g/ha [10]: 70%; pest or weed control at 250 g/ha (Setaria faberi (SETFA) [11]): 70%; pest or weed control at 250 g/ha (Solanum nigrum (SOLNI) [12]): 0%
Cc1ccc(-c2ccc(C(C)(C)C)cc2)cc1C1=C(O)C(C)(C)OC(C)(C)C1=O [Compound A-21]	100%	60%	50%	90%	100%	50%	40%	20%	60%	90%	60%	20%	
Cc1ccc(-c2cccc(C#N)c2)cc1C1=C(O)C(C)(C)OC(C)(C)C1=O [Compound A-22]	40%	30%	20%	90%	40%	60%	30%	0%	0%	80%	20%	90%	
CCc1ccc(-c2ccc(Cl)c(C)c2)cc1C1=C(O)C(C)(C)C(=O)C(C)(C)C1=O [Compound B-2]	0%	90%	20%	70%	0%	30%	0%	70%	0%	80%	20%	40%	
CCc1ccc(-c2ccc(Cl)cc2)cc1C1=C(OC(=O)C2CC2)C(C)(C)OC(C)(C)C1=O [Compound D-10]	50%	0%	0%	100%	100%	0%	90%	20%	20%	100%	100%	0%	
CCc1ccc(-c2ccc(Cl)cc2)cc1C1=C(O)C(C)(C)OC(C)C1=O (single isomer, unassigned) [Compound A-26]	80%	0%	80%	100%	100%	0%	100%	100%	100%	100%	100%	50%	
Cc1ccc(-c2ccc(Oc3ccccc3)cc2)cc1C1=C(O)C(C)(C)OC(C)(C)C1=O [Compound A-16]	30%	0%	20%	100%	100%	0%	30%	40%	30%	100%	100%	10%	
Cc1ccc(-c2ccc(F)c(F)c2)cc1C1=C(O)C(C)(C)OC(C)(C)C1=O [Compound A-24]	80%	20%	60%	100%	90%	20%	100%	90%	80%	100%	100%	70%	
CCc1ccc(-c2ccc(Cl)cc2)cc1C1=C(OC(=O)OCC(C)C)C(C)(C)OC(C)(C)C1=O [Compound D-14]	50%	0%	20%	60%	90%	0%	20%	0%	10%	100%	100%	0%	
Cc1ccc(-c2cc(F)c(F)c(F)c2)cc1C1=C(O)C(C)(C)OC(C)(C)C1=O [Compound A-31]	50%	0%	0%	100%	100%	0%	100%	0%	90%	100%	100%	60%	
C#CCOC(=O)OC1=C(c2cc(-c3ccc(Cl)cc3)ccc2CC)C(=O)C(C)(C)OC1(C)C [Compound D-15]	80%	0%	60%	100%	100%	0%	80%	0%	60%	100%	100%	0%	
CCc1ccc(-c2ccc(Cl)nc2C)cc1C1=C(O)C(C)(C)C(=O)C(C)(C)C1=O [Compound B-30]													pest or weed control at 250 g/ha [1]: 0%; pest or weed control at 250 g/ha [2]: 0%; pest or weed control at 250 g/ha (Avena fatua (AVEFA) [3]): 0%; pest or weed control at 250 g/ha [4]: 0%; pest or weed control at 250 g/ha (Setaria faberi (SETFA) [5]): 0%; pest or weed control at 250 g/ha (Solanum nigrum (SOLNI) [6]): 0%; pest or weed control at 250 g/ha [7]: 20%; pest or weed control at 250 g/ha [8]: 0%; pest or weed control at 250 g/ha (Avena fatua (AVEFA) [9]): 0%; pest or weed control at 250 g/ha [10]: 70%; pest or weed control at 250 g/ha (Setaria faberi (SETFA) [11]): 70%; pest or weed control at 250 g/ha (Solanum nigrum (SOLNI) [12]): 10%
